Assay results reported in PubChem BioAssay AID1259407 (Chemical Carcinogenesis Research Information System (CCRIS), 2018).
Entries after “also recorded” stand apart in the source; their conditions may differ. Activity calls are given as the source filed them. No rule for the calls is given here.

System: CCRIS mutagenicity, Ames/micronucleus/aberration tests
Experiment: CCRIS mutagenicity studies
[1] = Test System: AMES SALMONELLA TYPHIMURIUM, Strain/Indicator: TA98, Metabolic Activation: NONE, Method: PREINCUBATION
[2] = Test System: AMES SALMONELLA TYPHIMURIUM, Strain/Indicator: TA100, Metabolic Activation: NONE, Method: PREINCUBATION
[3] = Test System: AMES SALMONELLA TYPHIMURIUM, Strain/Indicator: TA1535, Metabolic Activation: NONE, Method: PREINCUBATION
[4] = Test System: AMES SALMONELLA TYPHIMURIUM, Strain/Indicator: TA97, Metabolic Activation: HAMSTER, LIVER, S-9, AROCLOR 1254 (30%), Method: PREINCUBATION
[5] = Test System: AMES SALMONELLA TYPHIMURIUM, Strain/Indicator: TA97, Metabolic Activation: NONE, Method: PREINCUBATION
[6] = Test System: AMES SALMONELLA TYPHIMURIUM, Strain/Indicator: TA98, Metabolic Activation: HAMSTER, LIVER, S-9, AROCLOR 1254 (10%), Method: PREINCUBATION
[7] = Test System: AMES SALMONELLA TYPHIMURIUM, Strain/Indicator: TA100, Metabolic Activation: HAMSTER, LIVER, S-9, AROCLOR 1254 (10%), Method: PREINCUBATION
[8] = Test System: AMES SALMONELLA TYPHIMURIUM, Strain/Indicator: TA1535, Metabolic Activation: HAMSTER, LIVER, S-9, AROCLOR 1254 (10%), Method: PREINCUBATION

Compound: Oc1cc(Cl)cc(Cl)c1
- mutagenic call (Test System: AMES SALMONELLA TYPHIMURIUM, Strain/Indicator: TA98, Metabolic Activation: HAMSTER, LIVER, S-9, AROCLOR 1254, Method: PREINCUBATION): inactive; negative
- mutagenic call [1]: inactive; negative
- mutagenic call (Test System: AMES SALMONELLA TYPHIMURIUM, Strain/Indicator: TA98, Metabolic Activation: RAT, LIVER, S-9, AROCLOR 1254, Method: PREINCUBATION): inactive; negative
- mutagenic call (Test System: AMES SALMONELLA TYPHIMURIUM, Strain/Indicator: TA100, Metabolic Activation: HAMSTER, LIVER, S-9, AROCLOR 1254, Method: PREINCUBATION): inactive; negative
- mutagenic call [2]: inactive; negative
- mutagenic call (Test System: AMES SALMONELLA TYPHIMURIUM, Strain/Indicator: TA100, Metabolic Activation: RAT, LIVER, S-9, AROCLOR 1254, Method: PREINCUBATION): inactive; negative
- mutagenic call (Test System: AMES SALMONELLA TYPHIMURIUM, Strain/Indicator: TA1535, Metabolic Activation: HAMSTER, LIVER, S-9, AROCLOR 1254, Method: PREINCUBATION): inactive; negative
- mutagenic call [3]: inactive; negative
- mutagenic call (Test System: AMES SALMONELLA TYPHIMURIUM, Strain/Indicator: TA1535, Metabolic Activation: RAT, LIVER, S-9, AROCLOR 1254, Method: PREINCUBATION): inactive; negative
- mutagenic call (Test System: AMES SALMONELLA TYPHIMURIUM, Strain/Indicator: TA1537, Metabolic Activation: HAMSTER, LIVER, S-9, AROCLOR 1254, Method: PREINCUBATION): inactive; negative
- mutagenic call (Test System: AMES SALMONELLA TYPHIMURIUM, Strain/Indicator: TA1537, Metabolic Activation: NONE, Method: PREINCUBATION): inactive; negative
- mutagenic call (Test System: AMES SALMONELLA TYPHIMURIUM, Strain/Indicator: TA1537, Metabolic Activation: RAT, LIVER, S-9, AROCLOR 1254, Method: PREINCUBATION): inactive; negative

Compound: Clc1ccc(C(Cl)c2ccccn2)cc1 (configuration not stated)
- mutagenic call (End Point: IN VITRO CHROMOSOMAL ABERRATIONS, Test System: CHL CELLS, Metabolic Activation: NONE): inactive; negative; test chemical precipitated at 0.2 mg/ml; toxic at 0.3 mg/ml (metaphase; also recorded: active; positive (structural changes); 0.30 mg/ml was toxic; metaphase cell division not
- mutagenic call (End Point: IN VITRO CHROMOSOMAL ABERRATIONS, Test System: CHL CELLS, Metabolic Activation: RAT, LIVER, S-9, SODIUM PHENOBARBITAL AND 5,6-BENZOFLAVONE): active; positive (structural changes); test chemical precipitated at 2 highest of 4 dose

Compound: S=[Se]
- mutagenic call (End Point: IN VITRO CHROMOSOMAL ABERRATIONS, Test System: CHO-LB CELLS, Metabolic Activation: NONE): active; positive
- mutagenic call (End Point: IN VITRO CHROMOSOMAL ABERRATIONS, Test System: CHO-LB CELLS, Metabolic Activation: RAT, LIVER, S-9, AROCLOR 1254): active; positive
- mutagenic call (Test System: AMES SALMONELLA TYPHIMURIUM, Strain/Indicator: TA97, Metabolic Activation: HAMSTER, LIVER, S-9, AROCLOR 1254 (5 OR 10%), Method: PREINCUBATION): active; positive
- mutagenic call [4]: inactive; negative
- mutagenic call [5]: active; positive
- mutagenic call (Test System: AMES SALMONELLA TYPHIMURIUM, Strain/Indicator: TA97, Metabolic Activation: RAT, LIVER, S-9, AROCLOR 1254 (5 OR 10%), Method: PREINCUBATION): active; positive
- mutagenic call (Test System: AMES SALMONELLA TYPHIMURIUM, Strain/Indicator: TA97, Metabolic Activation: RAT, LIVER, S-9, AROCLOR 1254 (30%), Method: PREINCUBATION): inactive; negative
- mutagenic call [6]: inactive; negative
- mutagenic call [1]: inactive; negative
- mutagenic call (Test System: AMES SALMONELLA TYPHIMURIUM, Strain/Indicator: TA98, Metabolic Activation: RAT, LIVER, S-9, AROCLOR 1254 (10%), Method: PREINCUBATION): inactive; negative
- mutagenic call (Test System: AMES SALMONELLA TYPHIMURIUM, Strain/Indicator: TA100, Metabolic Activation: HAMSTER, LIVER, S-9, AROCLOR 1254 (5%), Method: PREINCUBATION): inactive; negative
- mutagenic call [7]: active; positive
- mutagenic call [2]: inactive; negative
- mutagenic call (Test System: AMES SALMONELLA TYPHIMURIUM, Strain/Indicator: TA100, Metabolic Activation: RAT, LIVER, S-9, AROCLOR 1254 (5 OR 10%), Method: PREINCUBATION): inactive; negative
- mutagenic call [8]: inactive; negative
- mutagenic call [3]: inactive; negative
- mutagenic call (Test System: AMES SALMONELLA TYPHIMURIUM, Strain/Indicator: TA1535, Metabolic Activation: RAT, LIVER, S-9, AROCLOR 1254 (10%), Method: PREINCUBATION): inactive; negative

Compound: CNc1ccnc(-c2cc(N(C)C)ccn2)c1.CNc1ccnc(-c2cc(N(C)C)ccn2)c1.F[P-](F)(F)(F)(F)F.F[P-](F)(F)(F)(F)F.F[P-](F)(F)(F)(F)F.F[P-](F)(F)(F)(F)F.[NH3+]Cc1ccnc(-c2cc(C[NH3+])ccn2)c1.[Os+2]
- mutagenic call (Test System: AMES SALMONELLA TYPHIMURIUM, Strain/Indicator: TA98, Metabolic Activation: NONE, Method: STANDARD PLATE): inactive; negative
- mutagenic call (Test System: AMES SALMONELLA TYPHIMURIUM, Strain/Indicator: TA98, Metabolic Activation: RAT, LIVER, S-9, AROCLOR 1254, Method: STANDARD PLATE): inactive; negative
- mutagenic call (Test System: AMES SALMONELLA TYPHIMURIUM, Strain/Indicator: TA100, Metabolic Activation: NONE, Method: STANDARD PLATE): inactive; negative
- mutagenic call (Test System: AMES SALMONELLA TYPHIMURIUM, Strain/Indicator: TA100, Metabolic Activation: RAT, LIVER, S-9, AROCLOR 1254, Method: STANDARD PLATE): inactive; negative

Compound: CCOP(=O)(NC(C)C)Oc1ccc(SC)c(C)c1 (configuration not stated)
- mutagenic call (Test System: AMES SALMONELLA TYPHIMURIUM, Strain/Indicator: TA97, Metabolic Activation: HAMSTER, LIVER, S-9, AROCLOR 1254 (10%), Method: PREINCUBATION): inactive; negative
- mutagenic call [4]: inactive; negative
- mutagenic call [5]: inactive; negative
- mutagenic call (Test System: AMES SALMONELLA TYPHIMURIUM, Strain/Indicator: TA97, Metabolic Activation: RAT, LIVER, S-9, AROCLOR 1254 (10 OR 30%), Method: PREINCUBATION): inactive; negative
- mutagenic call [6]: inactive; negative
- mutagenic call (Test System: AMES SALMONELLA TYPHIMURIUM, Strain/Indicator: TA98, Metabolic Activation: HAMSTER, LIVER, S-9, AROCLOR 1254 (30%), Method: PREINCUBATION): inactive; negative
- mutagenic call [1]: inactive; negative
- mutagenic call (Test System: AMES SALMONELLA TYPHIMURIUM, Strain/Indicator: TA98, Metabolic Activation: RAT, LIVER, S-9, AROCLOR 1254 (10 OR 30%), Method: PREINCUBATION): inactive; negative
- mutagenic call [7]: inactive; negative
- mutagenic call (Test System: AMES SALMONELLA TYPHIMURIUM, Strain/Indicator: TA100, Metabolic Activation: HAMSTER, LIVER, S-9, AROCLOR 1254 (30%), Method: PREINCUBATION): inactive; negative
- mutagenic call [2]: inactive; negative
- mutagenic call (Test System: AMES SALMONELLA TYPHIMURIUM, Strain/Indicator: TA100, Metabolic Activation: RAT, LIVER, S-9, AROCLOR 1254 (10 OR 30%), Method: PREINCUBATION): inactive; negative
- mutagenic call [8]: inactive; negative
- mutagenic call (Test System: AMES SALMONELLA TYPHIMURIUM, Strain/Indicator: TA1535, Metabolic Activation: HAMSTER, LIVER, S-9, AROCLOR 1254 (30%), Method: PREINCUBATION): inactive; negative
- mutagenic call [3]: inactive; negative
- mutagenic call (Test System: AMES SALMONELLA TYPHIMURIUM, Strain/Indicator: TA1535, Metabolic Activation: RAT, LIVER, S-9, AROCLOR 1254 (10 OR 30%), Method: PREINCUBATION): inactive; negative

Compound: C[C@]12CC[C@@H]3c4ccc(OC(=O)c5ccccc5)cc4CC[C@H]3[C@@H]1CC[C@@H]2O
- mutagenic call (End Point: IN VIVO MICRONUCLEUS, Test System: BONE MARROW POLYCHROMATIC ERYTHROCYTES, Species: RAT, Strain/Sex: ALDERLEY PARK (AP)/FEMALE, Route: SUBCUTANEOUS (TEST MATERIAL SOLVENT: OIL)): inactive; negative
